Measured values: US11661426B2, “Imidazole-containing inhibitors of ALK2 kinase” (BioCryst Pharmaceuticals, Inc., priority 2017, dated 2023)
pIC50: −log10 of the molar value.

Molecular target: ALK2 (Homo sapiens (Human), UniProt Q04771)
Experiment: ALK2 inhibition, LanthaScreen Eu Kinase Binding Assay (ThermoFisher Scientific / Life Technologies)
Settings: read-out: Measured Ki (IC50) Value for Compounds: IC50
Method: Biochemical assays to measure the inhibitory effects of the compounds were performed by ThermoFisher Scientific (Life Technologies). ALK2 inhibition was tested using LanthaScreen™ Eu Kinase Binding Assay screening protocol.

Sequence of ALK2 (Q04771 21-509): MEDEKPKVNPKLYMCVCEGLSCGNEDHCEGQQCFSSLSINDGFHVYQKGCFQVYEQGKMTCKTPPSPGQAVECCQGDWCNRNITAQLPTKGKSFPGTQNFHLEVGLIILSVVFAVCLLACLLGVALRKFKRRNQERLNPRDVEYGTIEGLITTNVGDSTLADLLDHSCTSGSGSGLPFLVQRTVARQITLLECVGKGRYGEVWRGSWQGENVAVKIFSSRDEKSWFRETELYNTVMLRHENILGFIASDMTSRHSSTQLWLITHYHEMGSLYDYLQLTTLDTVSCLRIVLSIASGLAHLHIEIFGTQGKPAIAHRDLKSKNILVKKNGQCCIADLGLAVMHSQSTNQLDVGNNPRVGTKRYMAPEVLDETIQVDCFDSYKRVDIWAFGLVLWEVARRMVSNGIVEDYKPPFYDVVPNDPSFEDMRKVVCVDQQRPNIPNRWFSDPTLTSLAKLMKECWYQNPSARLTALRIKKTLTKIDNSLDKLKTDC

SMILES | pIC50
OC[C@@H]1CCCN1c1nc(Nc2cn(-c3ccc(F)cc3)cn2)c2ccsc2n1 [Compound 60b, (S)-(1-(4-((1-(4-fluorophenyl)-1H-imidazol-4-yl)amino)thieno[2,3-d]pyrimidin-2-yl)pyrrolidin-2-yl)methanol] | > 7.00
COc1cc(-n2cnc(Nc3nc4c(c(N5CCC[C@H]5C(N)=O)n3)CNCC4)c2)cc(OC)c1OC [Compound 193c, (S)-1-(2-((1-(3,4,5-trimethoxyphenyl)-1H-imidazol-4-yl)amino)-5,6,7,8-tetrahydropyrido[4,3-d]pyrimidin-4-yl)pyrrolidine-2-carboxamide] | > 7.00
COc1cc(-n2cnc(Nc3nc(N4CCC[C@H]4C(N)=O)nc4sccc34)c2)cc(OC)c1OC [Compound 155a, (S)-1-(4-((1-(3,4,5-trimethoxyphenyl)-1H-imidazol-4-yl)amino)thieno[2,3-d]pyrimidin-2-yl)pyrrolidine-2-carboxamide] | > 7.00
COc1cc(-n2cnc(Nc3nc(N(C)C4CCN(C)CC4)nc4ccoc34)c2)cc(OC)c1OC [Compound 265a, N2-methyl-N2-(1-methylpiperidin-4-yl)-N4-(1-(3,4,5-trimethoxyphenyl)-1H-imidazol-4-yl)furo[3,2-d]pyrimidine-2,4-diamine] | > 7.00
COc1cc(-n2cnc(Nc3nc(N4CCC[C@H]4C(N)=O)nc4[nH]ccc34)c2)cc(OC)c1OC [Compound 142b, (S)-1-(4-((1-(3,4,5-trimethoxyphenyl)-1H-imidazol-4-yl)amino)-7H-pyrrolo[2,3-d]pyrimidin-2-yl)pyrrolidine-2-carboxamide] | > 7.00
COc1cc(F)c(CC(=O)N2CCN(c3nc(Nc4cn(C)cn4)c4cccn4n3)CC2)c(F)c1 [Compound 51a, 2-(2,6-difluoro-4-methoxyphenyl)-1-(4-(4-((1-methyl-1H-imidazol-4-yl)amino)pyrrolo[2,1-f][1,2,4]triazin-2-yl)piperazin-1-yl)ethanone] | 6.00 to 7.00
COc1cc(-n2cnc(Nc3nc4c(c(N5CCC[C@H]5CO)n3)CN(C(=O)c3ccc(C#N)cc3)CC4)c2)cc(OC)c1OC [Compound 241a, (S)-4-(4-(2-(hydroxymethyl)pyrrolidin-1-yl)-2-((1-(3,4,5-trimethoxyphenyl)-1H-imidazol-4-yl)amino)-5,6,7,8-tetrahydropyrido[4,3-d]pyrimidine-6-carbonyl)benzonitrile] | > 7.00
COc1cc(-n2cnc(Nc3nc(-c4cccc(CO)c4)nn4cccc34)c2)cc(OC)c1OC [Compound 134a, (3-(4-((1-(3,4,5-trimethoxyphenyl)-1H-imidazol-4-yl)amino)pyrrolo[2,1-f][1,2,4]triazin-2-yl)phenyl)methanol] | > 7.00

The remaining lines, values ahead:

pIC50 | SMILES
< 6.00 | CCOc1ccc(-n2cnc(Nc3nc(N4CCC[C@H]4CO)c4cccn4n3)c2)cc1OCC [Compound 256d, (S)-(1-(2-((1-(3,4-diethoxyphenyl)-1H-imidazol-4-yl)amino)pyrrolo[2,1-f][1,2,4]triazin-4-yl)pyrrolidin-2-yl)methanol]
> 7.00 | COc1cc(-n2cnc(Nc3nc(N4CCC[C@H]4CO)c4c(C)nn([C@H]5C[C@H](O)C5)c4n3)c2)cc(OC)c1OC [Compound 465c, (trans)-3-(4-((S)-2-(hydroxymethyl)pyrrolidin-1-yl)-3-methyl-6-((1-(3,4,5-trimethoxyphenyl)-1H-imidazol-4-yl)amino)-1H-pyrazolo[3,4-d]pyrimidin-1-yl)cyclobutanol]
6.00 to 7.00 | OC[C@@H]1CCCN1c1nc(Nc2cn(-c3cn(C4CCCCC4)cn3)cn2)c2cccn2n1 [Compound 452d, (S)-(1-(4-((1′-cyclohexyl-1′H-[1,4′-biimidazol]-4-yl)amino)pyrrolo[2,1-f][1,2,4]triazin-2-yl)pyrrolidin-2-yl)methanol]
> 7.00 | COC(=O)c1cc(-n2cnc(Nc3nc(N4CCC[C@H]4C(N)=O)nn4cccc34)c2)cc(OC)c1OC [Compound 350d, (S)-methyl 5-(4-((2-(2-carbamoylpyrrolidin-1-yl)pyrrolo[2,1-f][1,2,4]triazin-4-yl)amino)-1H-imidazol-1-yl)-2,3-dimethoxybenzoate]
